This passage reports melting point results from a melting point compilation (Tetko et al.; mined from patent text by program, amines drawn as free bases though some values may be those of a salt).

In turn, `CN1CCc2ccc(C(=O)CCC(=O)N3CCC(c4ccc(Cl)cc4)CC3)cc2C1` showed a melting point of 139 to 140 °C.

As to `CCOC(=O)c1nc(-c2ccc(Cl)c(OC)c2F)cc(N)c1Cl`, the melting point is 74 to 75 °C. Under `Cc1oc(-c2ccccc2)nc1CCc1nc(COc2ccccc2CC(=O)O)co1` stands 109 to 110 °C; under `Cc1cc(-c2coc3c(-c4ccc(F)cc4)c(-c4ccc(S(C)(=O)=O)cc4)nn23)ccc1Cl`, 202 to 205 °C.

Compound `COc1ccccc1NC(=O)Nc1nc(Nc2ccccc2-c2ccccc2)nc(N(CCC(=O)O)Cc2ccccc2C(F)(F)F)n1` returned a melting point of 216 to 219 °C. On to `Cc1nn(C)c(-c2ccccc2)c1NC1=NCCN1`, for which the melting point is 232 to 234 °C. Under `COC1C(OC(=O)N2CCOCC2)CCC2(CO2)C1C1(C)OC1CCC(C)C` (configuration not stated) stands 64 to 65 °C; under `CON=C1CCCCC1n1nc(-c2c(-c3ccccc3)nn3ccccc23)ccc1=O` (configuration not stated), 85 to 87 °C; under `CC(Oc1ccc(N(C)c2cc3ccc(Cl)cc3c(Cl)n2)cc1)C(=O)O` (configuration not stated), 136 °C. Under `O=C1CCC(O)(c2ccc(Cl)cc2)CC1` stands 138 to 139 °C. In turn, `CC(C=O)Oc1ccc(Cl)cc1Cl` (configuration not stated) came in with a melting point of 87 to 88 °C. Compound `Cc1c(F)cccc1NC(=O)CN1CC2CCC(C1)N2S(=O)(=O)c1ccccc1` registered a melting point of 168 to 169 °C. Under `COC(=O)c1ccc(OCCCCCOc2ccc(C(=O)OC)cc2)cc1` stands 93 to 95 °C; under `N#CC(O)C(Cc1ccccc1)N1C(=O)c2ccccc2C1=O` (configuration not stated), 128 to 132 °C; under `C(#Cc1ccc(-c2nc3ccccc3s2)cc1)c1ccccc1`, 172 to 173 °C.

For `CCCC(=O)OCC(=O)C1(OC(=O)COC)CCC2C3CC(C)C4=CC(=O)C=CC4(C)C3C(O)CC21C` (configuration not stated), the melting point was in the range of 132 to 134 °C. Under `COc1ccc(C(=O)Cc2c(Cl)cncc2Cl)c2c(CC(=O)OCc3ccccc3)coc12` stands 132 to 133 °C. Under `CCOC(=O)c1c(N2CCN(C(=O)c3cccs3)CC2)c2cc(F)cnc2n(Cc2ccccc2)c1=O` stands 130 °C; under `CC(C)Nc1nc(-c2ccccc2)c(-c2ccc(=O)n(C(C)C)n2)s1`, 138 to 139 °C; under `CSCCC(=O)Nc1sc(-c2cccnc2)nc1SC`, 72 to 74 °C. For `O=C(c1ccccc1)N1CCC(CN2CCc3c([nH]c4ccccc34)C2)CC1`, the melting point was in the range of 162 to 164 °C.

In turn, `NS(=O)(=O)OCCOc1ccc(OCc2ccccc2)cc1` returned a melting point of 125 to 128 °C. As to `CCCc1c(Cl)nc(NC=O)nc1Cl`, the melting point was 92 to 94 °C.

The compound `Nc1ncnc2c1cnn2C1CCC(OCC(F)c2ccccc2)C(F)C1` (configuration not stated) displayed a melting point of 209 to 211 °C.

For the compound `CC(C)(C)OC(=O)c1cnc(F)cn1`, the melting point lay within 26.5 to 28.1 °C.

In turn, `CN1C2CCCC1CN(c1ccc(C#Cc3ccc(N)cc3)cc1)C2` registered a melting point of 191 °C.

With `CC(=O)OCC1CCCN(C(=O)c2ccc(NC(=O)c3ccccc3C)cc2)c2ccccc21` (configuration not stated), the melting point lay within 155 to 156 °C. Under `O=C1c2ccccc2C(=O)N1CCCSc1nccc(NC(=S)NCC(F)(F)F)n1` stands 214 to 215 °C.

Compound `CC(=O)Nc1ccc(-c2cccc(C3=NCC(C)(C)c4ccc5c(c43)CC(C)(C)O5)c2)cc1` came in with a melting point of 246 to 249 °C. Under `C(=CCN(CC1CCCCC1)CC1CCCCC1)CN(CC1CCCCC1)CC1CCCCC1` stands 72 to 73 °C; under `CCCc1nc2c(N)nc3cc(-c4ccccc4)ccc3c2n1CCCC(C)=O`, 202 to 204 °C; under `Cn1cnc(S(=O)(=O)NCCc2ccc(OCC(=O)O)cc2)c1`, 203 to 204 °C.

Compound `N#Cc1cc(O)c2[nH]c(=O)oc2c1` came in with a melting point of over 220 °C.

The compound `CC(C)(C)OC(=O)[C@@H]1CCCN1C[C@@H](O)[C@H](Cc1ccc(F)cc1)NC(=O)[C@H](CC(N)=O)NC(=O)OCc1ccccc1` showed a melting point of 163 to 164 °C.

In the case of `COc1cccc(CC(=O)O)c1OCCCc1cn(-c2ccc(C(F)(F)F)cn2)nc1C(C)C`, the melting point was in the range of 142 to 143 °C. Under `CC(c1ccc(-c2ccccc2Cl)cc1)S(=O)CC(=O)O` (configuration not stated) stands 144 to 147 °C; under `CCCCc1c(Cl)nc(N)nc1Cl`, 169 to 170 °C; under `COc1cc(O)c(C=NNC(=O)c2cc3ccccc3s2)c(OC)c1`, 205 °C. Under `CC(=O)CC(=O)Nc1ccc(N)c([N+](=O)[O-])c1` stands 146 to 147 °C. For `CCOC(CCN(C(=O)c1cccs1)c1nc(-c2cc(-c3ccccc3)no2)cs1)OCC`, the melting point is 100 to 101 °C.

Turning to `O=C(O)C1CCc2cc(O)ccc2O1` (racemic), the melting point lay in the range of 175 to 177 °C. Under `CCCCOc1cc(CCS(=O)(=O)NC(=O)OCC(C)C)n(Cc2ccc(Cl)cc2Cl)n1` stands 114 to 116 °C; under `CCOC(=O)c1c(N2CCC(N(C)C)CC2)c2cc(C)ccc2n(Cc2ccccc2)c1=O`, over 60 °C. Under `CCN(C)c1cc(Br)cc(S(=O)(=O)c2ccc(N)cc2)c1` stands 162 to 164 °C. Under `COc1cc(O)c(C(=O)C=Cc2ccc(C)o2)c(OC)c1` stands 103 °C; under `CC(C)NCC(O)COc1ccc(CCSCC2CCC2)cc1` (configuration not stated), 52 °C; under `COc1cc(SC#N)cc(C#N)c1N`, 121 to 122 °C. `CCOC(=O)c1c(CCCCn2ccnc2)nc2cc(OC)c(OC)cc2c1-c1ccc(OC)c(OC)c1` gave a melting point of 119 to 120 °C.

In the case of `CCCCCCCCCCCCCCCCCCOc1ccc(C(=O)OCC)cc1[N+](=O)[O-]`, the melting point was in the range of 48 to 56 °C. On to `C[C@]12C/C(=C\F)[C@H]3[C@@H](CCC4=CC(=O)CC[C@@H]43)[C@@H]1CCC2=O`, for which the melting point fell in the range of 208 to 212 °C. Under `Cn1ccnc1-c1ccccc1Nc1nc(Nc2ccc3c(c2)CCC(=O)CC3)ncc1Cl` stands 149 °C; under `Cc1ccc(C2CC(=O)c3c(C)coc3C2)cc1` (configuration not stated), 113 to 114 °C; under `COc1ccc(Nc2nc(-c3ccccc3)c(-c3nc4ccccc4c(=O)n3-c3ccc(Cl)cc3)s2)cc1`, 262 to 263 °C. Turning to `CCCCCCCCCCCCCCCCCC(=O)Oc1nc2c(N)ncnc2n1Cc1ccccc1`, the melting point was in the range of 128 to 129 °C. Under `C[Si](C)(C)OCc1cccc2c1c1c(c3ccccc32)-c2c(c3ccccc3c3ccccc23)C1` stands 130 to 131 °C; under `Oc1cc(/C=C/c2ccccn2)n(-c2ccccc2)n1`, 167 to 168 °C. Under `OC1(C(Br)Br)O[C@H](COCc2ccccc2)[C@@H](OCc2ccccc2)[C@H](OCc2ccccc2)[C@H]1OCc1ccccc1` (some centres not stated) stands 77 to 78 °C; under `CC(=O)c1cc(N2CCCC2)ccc1NC(=O)c1ccccc1OCc1ccccc1`, 160 to 161 °C. Under `CN(C(=O)c1ccc(Cn2ncc3ccccc32)cc1)C1CCNCC1` stands 146 to 148 °C; under `CC(=O)NC[C@H]1CN(c2ccc(N=C=S)c(F)c2)C(=O)O1`, 172 to 176 °C. `CCCCNC(=O)C(C)n1nnc2ccc(Oc3cc(F)c(C(F)(F)F)c(Cl)c3)cc21` (configuration not stated) yielded a melting point of 142 to 143 °C. Under `Fc1ccc(-c2ccc3[nH]ccc3c2)cc1` stands 71 to 74 °C; under `C=CCOc1ccccc1-c1nc2c(CCC)nn(C)c2c(=O)[nH]1`, 116 to 119 °C; under `Cc1cc(-c2ccccc2)nn1C(C)C(=O)N(C)C` (configuration not stated), 98 to 99 °C. Under `CN(C)c1ccc(-c2cncc(OC3SCC(O)C(O)C3O)c2)cc1` (configuration not stated) stands 240 °C.

In turn, `CCOC(=O)C1=CC(OC)(OC)CCC1S(=O)(=O)Nc1ccc(F)cc1Cl` (configuration not stated) showed a melting point of 97 to 98 °C.

Take `CNC(=O)c1nc(-c2cccnc2)nc2c1[nH]c(=O)n2-c1ccccc1`: the melting point is over 330 °C. Under `Clc1nc2ccccc2c2c1ncn2Cc1ccccn1` stands 217 to 220 °C. `Cn1cc(C2=C(c3cn(CCCS(C)(=O)=O)c4ccccc34)C(=O)NC2=O)c2ccccc21` yielded a melting point of 225 to 227 °C. Under `CCCCCCCCCCCCCCOC(=O)NO` stands 64 to 66 °C.

In turn, `CCOC(=O)c1c(O)c2ccsc2n(Cc2ccccc2)c1=O` came in with a melting point of 146 °C. `COC(=O)c1cc(OCc2ccccc2)cc(C(=O)OC)c1`: the melting point was in the range of 94 to 95 °C.

In turn, `COc1ccc2c(c1)CCN1C[C@H]3CCCN[C@H]3C[C@@H]21` yielded a melting point of 125 to 127 °C.

In the case of `CCN(CC)C(=O)Nc1c(C)c(C)c2c(c1C)C(c1ccc(C(C)C)cc1)CO2` (configuration not stated), the melting point was 79 to 81 °C.

`COCCOc1cc2ncc(C#N)c(Cl)c2cc1OCc1ccccc1` came in with a melting point of 142 to 145 °C. With `CC(C)Cn1c(=O)n(C)c(=O)c2c(Sc3cccs3)c(C(=O)c3cccnc3)sc21`, the melting point fell in the range of 111 to 115 °C. Compound `COc1ccc(C(=O)Cc2c(Cl)cncc2Cl)c2c1OC1(CCCC1)O2` yielded a melting point of 110 to 112 °C. Under `COC(=O)c1ccc(NCc2cccc(F)c2)cn1` stands 89 to 92 °C; under `O=C(c1ccc2nc[nH]c(=O)c2c1)c1ncc2ccccn12`, 289 °C; under `Cc1nc(CN2CCc3sc(Nc4ncc(F)cn4)nc3-c3c[nH]nc32)no1`, 245 °C. Under `CCCCCCOc1ccc2c(c1CCC)OC(CCC(=O)O)(CCC(=O)O)CC2=O` stands 164 to 165 °C; under `CC(=Cc1ccccc1)c1ccc2c(c1)C(C)(C)CC(O)C2(C)C` (configuration not stated), 102 to 103 °C. Under `CC(=O)Nc1ccc(NC(=O)CCl)c(O)c1` stands 218 °C; under `CCCc1c(OCCCSc2ccc(CC(=O)OC)c(Cl)c2Cl)ccc(C(C)=O)c1O`, 82 to 85 °C; under `C1=C(CCc2ccccc2)CCN(Cc2n[nH]c3c2CCc2ccccc2-3)C1`, 173 to 174 °C. Regarding `C[C@H](NC(=O)OCc1ccccc1)C(=O)N1CCC[C@H]1C(=O)NC1CCCCCCC1`, the melting point is 94 to 96 °C. Under `CN(C)C[C@@H]1NCCC[C@H]1O` (relative stereo) stands 50 to 60 °C.
